{"source": "patent US8703438B2", "about": "“Ligand binding stabilization method for drug target identification” (The Regents of the University of California, priority 2008, dated 2014)", "assay": "Precipitation in yeast culture medium", "type": "physicochemical", "conditions": "final concentration ˜1 mM", "source_text": "For cytotoxic and cytostatic small molecules, deletion mutants in their target often would have increased sensitivity to the drug (and overexpression could decrease sensitivity). Indeed, this is the basis for the elegant haploinsufficiency profiling (HIP) strategy (Giaever et al. (1999) Nat Genet. 21: 278-283). However, an inherent limitation of this type of fitness-based methods is that they are applicable only to drugs that affect cell growth/viability, i.e., cytotoxic or cytostatic drugs. […] A key advantage of DARTS is that it is independent of the drug's biological phenotype, and thus is not limited to the studies of cytotoxic/cytostatic drugs or drugs that induce transcriptional or morphological changes which have been the limitation of previous methods.", "data": [{"compound": "Oc1ccc(C=Cc2cc(O)cc(O)c2)cc1", "note": "[resveratrol]", "values": [{"measurement": "behaviour in culture medium", "value": "precipitated out of the culture medium"}]}]}
